For five cell lines, relative viability results are on record in the supplement of paper PMC10307832.

Assay in all cases: relative viability (nuclei count vs DMSO), 5 days (fraction); higher = more cells survive
Compound in experiment [1]: C=CCc1cccc(/C=N/NC(=O)CN2CCN(Cc3ccccc3)CC2)c1O [PAC-1] + CC(=O)Nc1cccc(-n2c(=O)n(C3CC3)c(=O)c3c(Nc4ccc(I)cc4F)n(C)c(=O)c(C)c32)c1 [Trametinib] (partner 0.02 µM)
In a few lines: (§1)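 The day after seeding in 1536-well plates, lung cancer cell lines were treated by pin tool with a single drug, or with a fixed anchor-drug dose together with five library-drug doses (not always all listed) in √10 steps. After 5 days, a combined fix-and-stain solution (final 0.05% Triton X-100, 1% formaldehyde, 1 ug/ml Hoechst) was added. Nuclei counted on 4× images gave relative viability as treated counts over vehicle counts, reported as the median of duplicate plates.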

Compound in experiment [2]: C=CC(=O)Nc1cc(-n2c(=O)ccc3cnc4ccc(-c5ccc(NS(C)(=O)=O)cc5)cc4c32)ccc1C [BMX-IN-1] + COc1cc2c(Oc3ccc(NC(=O)C4(C(=O)Nc5ccc(F)cc5)CC4)cc3F)ccnc2cc1OCCCN1CCOCC1 [Foretinib] (partner 0.25 µM)
In a few lines: as §1

Compound in experiment [3]: C=CCc1cccc(/C=N/NC(=O)CN2CCN(Cc3ccccc3)CC2)c1O [PAC-1] + O=C(c1cc(Cc2n[nH]c(=O)c3ccccc23)ccc1F)N1CCN(C(=O)C2CC2)CC1 [Olaparib] (partner 8 µM)
In a few lines: as §1

Compound in experiment [4]: C=CC(=O)N1CCC[C@@H](n2nc(-c3ccc(Oc4ccccc4)cc3)c3c(N)ncnc32)C1 [Ibrutinib] + CC(=O)c1c(C)c2cnc(Nc3ccc(N4CCNCC4)cn3)nc2n(C2CCCC2)c1=O [Palbociclib] (partner 0.5 µM)
A digest of the protocol:
as §1

In the case of NCI-H2342, the relative viability in experiment [1] (first compound 0.02 µM) is 1.16; in experiment [1] (first compound 0.06325 µM), 0.816; in experiment [1] (first compound 0.2 µM), 0.697; in experiment [1] (first compound 2 µM), 0.83; in experiment [2] (first compound 0.02 µM), 1.06; in experiment [2] (first compound 0.2 µM), 1.04. Also, the relative viability in experiment [2] (first compound 0.6325 µM) worked out at 1.04; in experiment [2] (first compound 2 µM) it was 1.24; in experiment [3] (first compound 0.02 µM) it was 0.442; in experiment [3] (first compound 0.06325 µM), 0.474; in experiment [3] (first compound 0.2 µM), 0.367; in experiment [3] (first compound 2 µM), 0.525. Also, the relative viability amounted to 0.495 in experiment [4] (first compound 0.005 µM); 0.519 in experiment [4] (first compound 0.01581 µM); 0.496 in experiment [4] (first compound 0.05 µM); 0.486 in experiment [4] (first compound 0.1581 µM); 0.502 in experiment [4] (first compound 0.5 µM).
As to NCI-H2347, the relative viability was found to be 0.309 in experiment [1] (first compound 0.02 µM); 0.285 in experiment [1] (first compound 0.06325 µM); 0.297 in experiment [1] (first compound 0.2 µM); 0.269 in experiment [1] (first compound 2 µM); 0.826 in experiment [2] (first compound 0.02 µM); 1.03 in experiment [2] (first compound 0.2 µM). The relative viability in experiment [2] (first compound 0.6325 µM) is 1.36; in experiment [2] (first compound 2 µM), 0.854; in experiment [3] (first compound 0.02 µM) it was 0.544; in experiment [3] (first compound 0.06325 µM), 0.622; in experiment [3] (first compound 0.2 µM) it was 0.551; in experiment [3] (first compound 2 µM), 0.515. Also, the relative viability in experiment [4] (first compound 0.005 µM) was 0.391; in experiment [4] (first compound 0.01581 µM), 0.386; in experiment [4] (first compound 0.05 µM) it was 0.478; in experiment [4] (first compound 0.1581 µM) it was 0.492; in experiment [4] (first compound 0.5 µM) it was 0.428.
Take NCI-H2405: the relative viability stood at 0.684 in experiment [1] (first compound 0.02 µM); 0.688 in experiment [1] (first compound 0.06325 µM); 0.667 in experiment [1] (first compound 0.2 µM); 0.73 in experiment [1] (first compound 2 µM); 1.04 in experiment [2] (first compound 0.02 µM); 1.1 in experiment [2] (first compound 0.2 µM). Moreover, the relative viability in experiment [2] (first compound 0.6325 µM) turned out to be 1.11; in experiment [2] (first compound 2 µM), 1.03; in experiment [3] (first compound 0.02 µM) it was 0.879; in experiment [3] (first compound 0.06325 µM) it was 0.894; in experiment [3] (first compound 0.2 µM), 0.922; in experiment [3] (first compound 2 µM), 0.94. The relative viability in experiment [4] (first compound 0.005 µM) worked out at 0.49; in experiment [4] (first compound 0.01581 µM), 0.514; in experiment [4] (first compound 0.5 µM), 0.525.
In the case of NCI-H3122, the relative viability is 0.213 in experiment [1] (first compound 0.02 µM); 0.253 in experiment [1] (first compound 0.06325 µM); 0.205 in experiment [1] (first compound 0.2 µM); 0.189 in experiment [1] (first compound 2 µM); 1 in experiment [2] (first compound 0.02 µM); 0.951 in experiment [2] (first compound 0.2 µM). In addition, the relative viability in experiment [2] (first compound 0.6325 µM) was determined as 0.957; in experiment [2] (first compound 2 µM) it was 0.984; in experiment [3] (first compound 0.02 µM) it was 0.635; in experiment [3] (first compound 0.06325 µM), 0.634; in experiment [3] (first compound 0.2 µM) it was 0.624; in experiment [3] (first compound 2 µM), 0.566. Moreover, the relative viability in experiment [4] (first compound 0.005 µM) is 0.188; in experiment [4] (first compound 0.01581 µM), 0.178; in experiment [4] (first compound 0.05 µM) it was 0.184; in experiment [4] (first compound 0.1581 µM) it was 0.176; in experiment [4] (first compound 0.5 µM), 0.196.
As for PC-3 [JPC-3], the relative viability was determined as 0.613 in experiment [1] (first compound 0.02 µM); 0.692 in experiment [1] (first compound 0.06325 µM); 0.711 in experiment [1] (first compound 0.2 µM); 0.726 in experiment [1] (first compound 2 µM); 1.12 in experiment [2] (first compound 0.02 µM); 1.16 in experiment [2] (first compound 0.2 µM). Also, the relative viability was 1.09 in experiment [2] (first compound 0.6325 µM); 1 in experiment [2] (first compound 2 µM); 1.04 in experiment [3] (first compound 0.02 µM); 1.15 in experiment [3] (first compound 0.06325 µM); 1.1 in experiment [3] (first compound 0.2 µM); 1.09 in experiment [3] (first compound 2 µM). For the same cell line, the relative viability was 0.585 in experiment [4] (first compound 0.005 µM); 0.527 in experiment [4] (first compound 0.01581 µM); 0.515 in experiment [4] (first compound 0.05 µM); 0.54 in experiment [4] (first compound 0.1581 µM); 0.486 in experiment [4] (first compound 0.5 µM).
